Assay results reported in patent publication US20260248927A1, “TARGETED PROTEIN DEGRADATION USING BIFUNCTIONAL COMPOUNDS THAT BIND UBIQUITIN LIGASE AND TARGET MCL-1 PROTEIN” (Captor Therapeutics S.A., priority 2022, published 2026).

Key:
[1] = molecular target: [MCL-1]-[compound of formula (I)]—[CRBN/DDB1] (Homo sapiens, UniProt Q07820+Q96SW2); assay: HTRF ternary complex formation assay; type: binding; settings: hMcl-1 and CRBN, 180 min at 25° C.; read-out: HTRF ternary complex Average pEC50 by molecule (converted)
Experimental: The effect of the bifunctional compounds of the invention on the formation of a ternary complex composed of [MCL-1]-[compound of formula (I)]—[CRBN/DDB1] was investigated with HTRF ternary complex assay.
Mix of protein solution was prepared: • 48 nM hMcl-1 and 105.6 nM CRBN were prepared in PPI Europium detection buffer with 2 mM DTT. • Acceptor and donor stock solutions were diluted 100 times in PPI Europium detection buffer. Equal volumes of both reagents were mixed. Finally giving 3 nM of Streptavidin-Eu cryptate ([…]) and 6.67 nM of Anti-6×his-d2 ([…]).
5 μl of protein mix was dispensed to all wells. The tested compounds in dose-response were dispensed onto a white 384-well low volume plate (Greiner, 784075). DMSO was backfilled to all wells, resulting in a final DMSO content of 0.5%. Wells containing only DMSO served as a background. Next, 5 μl of solution with donor and acceptor was added to the wells.
The plate was sealed with transparent film and shaken using a VibroTurbulator for 60 sec at level 3. The plate was then spun down shortly (10 s, 1000 rcf) and incubated at 25° C. for 180 min.
The read-out was performed with plate reader (Pherastar, BMG Labtech) in time resolved fluorescence mode. Filterset: TR 337 665 620.
The results were analyzed as follows: • 1) an average of fluorescence for background signal was calculated and used as a negative control; • 2) raw fluorescence values for tested compounds were normalized against negative controls; • 3) bell shape curve was fitted to a gaussian distribution using a non-linear least squares Gauss-Newton algorithm; • 4) EC50 and pEC50 values were determined.

[2] = Cell viability assay (CellTiter-Glo), ARH-77; type: cell-based; settings: human, ARH-77 cells (lymphoblast-like, MCL-1 independent), ARH-77, 24 hours, 1% FBS, read-out: Average pCC50 by molecule ARH-77 (converted)
Description: (§1) The effect of various compounds of the invention on the viability of MV4-11 and ARH-77 cell lines was investigated, using the CTG protocol described below.
(§2) MV4-11 cell lines are derived from acute myeloid leukaemia and it is described in the literature as a MCL-1 dependent cell line, as opposed to lymphoblast-like ARH-77 cell line, which is described as independent of MCL-1 (Tron A E et al. Nat Commun. 2018; 9: 5341; Caenepeel S et al. Cancer Discov. 2018 December; 8(12): 1582-1597).
(§3) Cells (MV4-11 or ARH-77) were seeded on […] in a growth medium with 1% FBS. Next, compound stocks were pre-diluted in DMSO and added directly to the cell culture media (final DMSO concentration: 0.5%). Compound concentrations used in this assay: 1/3 dilutions starting at 30 μM (9 to 12 points). After 24 hours of incubation, cell viability was evaluated using CellTiter-Glo Luminescent Cell Viability Assay (Promega, cat #G7572). The luminescence signal was measured using a CLARIOstar Plus Multi-Mode Microplate Reader (574-590 nm).
(§4) Results were normalized to DMSO control. Collected data were analyzed using GraphPad Prism to calculate pCC50 values.

MV4-11 cells = assay: Cell viability assay (CellTiter-Glo), MV4-11; type: cell-based; settings: Homo sapiens, MV4-11, 24 hours, 1% FBS, read-out: Average pCC50 by molecule MV4-11 (converted)
Description: as §1, §2, §3, §4

Chain of [MCL-1]-[compound of formula (I)]—[CRBN/DDB1] (Q07820 whole entry): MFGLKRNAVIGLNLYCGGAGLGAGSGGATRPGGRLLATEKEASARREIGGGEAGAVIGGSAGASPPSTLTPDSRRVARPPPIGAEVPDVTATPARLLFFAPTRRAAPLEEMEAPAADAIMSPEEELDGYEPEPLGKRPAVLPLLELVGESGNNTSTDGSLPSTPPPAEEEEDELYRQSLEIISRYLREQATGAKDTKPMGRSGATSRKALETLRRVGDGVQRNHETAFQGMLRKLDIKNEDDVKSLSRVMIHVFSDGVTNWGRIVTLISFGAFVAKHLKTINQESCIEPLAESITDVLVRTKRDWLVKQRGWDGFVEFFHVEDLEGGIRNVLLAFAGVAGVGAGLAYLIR
Chain of [MCL-1]-[compound of formula (I)]—[CRBN/DDB1] (Q96SW2 whole entry): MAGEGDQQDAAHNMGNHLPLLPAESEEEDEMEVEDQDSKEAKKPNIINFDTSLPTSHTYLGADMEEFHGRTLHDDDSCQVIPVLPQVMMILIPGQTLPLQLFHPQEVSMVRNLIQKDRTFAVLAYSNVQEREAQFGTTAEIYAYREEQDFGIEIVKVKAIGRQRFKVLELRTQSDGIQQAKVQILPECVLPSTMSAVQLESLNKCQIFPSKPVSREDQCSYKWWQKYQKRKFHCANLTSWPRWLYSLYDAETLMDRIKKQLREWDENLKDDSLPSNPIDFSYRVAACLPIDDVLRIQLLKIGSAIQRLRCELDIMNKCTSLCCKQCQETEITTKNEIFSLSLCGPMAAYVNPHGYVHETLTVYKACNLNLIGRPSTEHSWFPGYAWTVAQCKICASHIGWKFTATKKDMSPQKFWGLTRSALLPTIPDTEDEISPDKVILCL
Chain of [MCL-1]-[compound of formula (I)]—[CRBN/DDB1] (Q16531 whole entry partner): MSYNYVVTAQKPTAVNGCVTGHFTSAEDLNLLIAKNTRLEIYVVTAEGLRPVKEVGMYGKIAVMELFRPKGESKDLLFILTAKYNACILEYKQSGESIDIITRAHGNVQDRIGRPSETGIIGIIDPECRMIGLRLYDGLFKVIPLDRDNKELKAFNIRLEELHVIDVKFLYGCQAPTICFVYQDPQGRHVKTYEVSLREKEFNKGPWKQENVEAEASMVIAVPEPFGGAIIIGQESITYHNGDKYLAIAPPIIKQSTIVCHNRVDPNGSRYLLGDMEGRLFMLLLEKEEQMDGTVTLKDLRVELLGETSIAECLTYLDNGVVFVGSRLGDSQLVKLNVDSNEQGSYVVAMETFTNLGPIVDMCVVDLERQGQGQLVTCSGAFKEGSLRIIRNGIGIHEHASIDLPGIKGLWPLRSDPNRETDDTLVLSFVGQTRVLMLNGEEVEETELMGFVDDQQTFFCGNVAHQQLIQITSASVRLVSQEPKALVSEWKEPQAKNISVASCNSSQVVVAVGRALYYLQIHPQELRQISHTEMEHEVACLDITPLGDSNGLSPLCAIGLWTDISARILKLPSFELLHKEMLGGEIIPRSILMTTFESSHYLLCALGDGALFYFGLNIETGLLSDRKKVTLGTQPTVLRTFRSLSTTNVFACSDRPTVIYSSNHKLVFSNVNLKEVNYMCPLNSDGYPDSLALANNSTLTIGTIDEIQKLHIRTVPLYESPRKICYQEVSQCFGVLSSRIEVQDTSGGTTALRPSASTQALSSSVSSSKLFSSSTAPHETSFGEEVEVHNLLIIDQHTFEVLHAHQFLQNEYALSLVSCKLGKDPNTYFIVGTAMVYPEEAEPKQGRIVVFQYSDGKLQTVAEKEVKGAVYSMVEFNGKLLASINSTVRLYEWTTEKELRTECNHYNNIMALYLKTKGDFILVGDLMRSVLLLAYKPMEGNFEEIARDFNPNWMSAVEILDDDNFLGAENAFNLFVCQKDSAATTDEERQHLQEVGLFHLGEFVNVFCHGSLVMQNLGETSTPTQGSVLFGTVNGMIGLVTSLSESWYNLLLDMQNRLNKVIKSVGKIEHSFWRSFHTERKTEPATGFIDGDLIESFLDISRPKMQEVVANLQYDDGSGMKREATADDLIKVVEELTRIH

SMILES	EC50 [1] [nM]	CC50 at 24 h [2] [nM]	CC50 (MV4-11 cells) [nM]
Cc1nn(C)c(C)c1-c1c(Cl)ccc2c(CCCOc3cccc4cc(F)ccc34)c(C(=O)O)n(CCN3CCC(CN4CCN(c5cc6c(cc5F)C(=O)N(C5CCC(=O)NC5=O)C6)CC4)CC3)c12 (stereo not drawn) [Compound 144, 6-Chloro-1-(2-(4-((4-(2-(2,6-dioxopiperidin-3-yl)-6-fluoro-1-oxoisoindolin-5-yl)piperazin-1-yl)methyl)piperidin-1-yl)ethyl)-3-(3-((6-fluoronaphthalen-1-yl)oxy)propyl)-7-(1,3,5-trimethyl-1H-pyrazol-4-yl)-1H-indole-2-carboxylic acid]	< 31.6	> 3160	< 100
Cc1nn(C)c(C)c1-c1c(Cl)ccc2c(CCCOc3cccc4cc(F)ccc34)c(C(=O)O)n(CCN3CCN(C(=O)COc4c(N(C)C)ccc5c4CN(C4CCC(=O)NC4=O)C5=O)CC3)c12 (stereo not drawn) [Compound 10, 6-Chloro-1-(2-(4-(2-((5-(dimethylamino)-2-(2,6-dioxopiperidin-3-yl)-1-oxoisoindolin-4-yl)oxy)acetyl)piperazin-1-yl)ethyl)-3-(3-((6-fluoronaphthalen-1-yl)oxy)propyl)-7-(1,3,5-trimethyl-1H-pyrazol-4-yl)-1H-indole-2-carboxylic acid]	< 316	> 10000	< 316
CCc1nn2c(c1-c1c(Cl)ccc3c(CCCOc4cccc5cc(F)ccc45)c(C(=O)O)n(CCN4CCN(C(=O)COc5cccc6c5CN(C5CCC(=O)NC5=O)C6=O)CC4)c13)COCC2 (stereo not drawn) [Compound 36, 6-Chloro-1-(2-(4-(2-((2-(2,6-dioxopiperidin-3-yl)-1-oxoisoindolin-4-yl)oxy)acetyl)piperazin-1-yl)ethyl)-7-(2-ethyl-6,7-dihydro-4H-pyrazolo[5,1-c][1,4]oxazin-3-yl)-3-(3-((6-fluoronaphthalen-1-yl)oxy)propyl)-1H-indole-2-carboxylic acid]	< 316	> 10000	< 100
Cc1nn(C)c(C)c1-c1c(Cl)ccc2c(CCCOc3cccc4cc(F)ccc34)c(C(=O)O)n(CCN3CCN(C(=O)c4cc5cc(C6CCC(=O)NC6=O)ccc5n4C)CC3)c12 (stereo not drawn) [Compound 148, 6-Chloro-1-(2-(4-(5-(2,6-dioxopiperidin-3-yl)-1-methyl-1H-indole-2-carbonyl)piperazin-1-yl)ethyl)-3-(3-((6-fluoronaphthalen-1-yl)oxy)propyl)-7-(1,3,5-trimethyl-1H-pyrazol-4-yl)-1H-indole-2-carboxylic acid]	< 31.6	> 3160	< 316
